Where a name gives a salt, the structure may show the parent alone.
Assays:
[1] = target: T1, S1P1 (Homo sapiens, UniProt P21453); test: S1P1 GTPγS assay; format: biochemical; parameters: expressed in transfected cells; host or cells: RH7777 cells (membranes); settings: tested in one of the above S1P1 assays (two protocols)
Protocol: The potencies and efficacies of the compounds of this invention for the S1P1 receptor can be determined by GTPγS assay performed on the human cloned receptor as described herein. […] All steps were performed at 4° C. Cells were homogenised within a glass Waring blender for 2 bursts of 15 secs in 200 mls of buffer (50 mM HEPES, 1 mM leupeptin, 25 m/ml bacitracin, 1 mM EDTA, 1 mM PMSF, 2 μM pepstatin A). The blender was plunged into ice for 5 mins after the first burst and 10-40 mins after the final burst to allow foam to dissipate. The material was then spun at 500 g for 20 mins and the supernatant spun for 36 mins at 48,000 g. The pellet was resuspended in the same buffer as above but without PMSF and pepstatin A. The material was then forced through a 0.6 mm needle, made up to the required volume, (usually ×4 the volume of the original cell pellet), aliquoted and stored frozen at—80° C. S1P1 expressing RH7777 membranes (1.5 μg/well) membranes (1.5 μg/well) were homogenised by passing through a 23G needle. These were then adhered to WGA-coated SPA beads (0.125 mg/well) in assay buffer (HEPES 20 mM, MgCl2, 10 mM, NaCl 100 mM and pH adjusted to 7.4 using KOH 5M). GDP 10 μM FAC and saponin 90 μg/ml FAC were also added After 30 minutes precoupling on ice, the bead and membrane suspension was dispensed into white Greiner polypropylene LV 384-well plates (5 μl/well), containing 0.1 μl of compound. 5 μl/well [^35S]-GTPγS (0.5 nM for S1P1 or 0.3 nM for S1P3 final radioligand concentration) made in assay buffer was then added to the plates. The final assay cocktail (10.1 μl) was then sealed, spun on a centrifuge, then read immediately on a Viewlux instrument. Alternatively, after 30 minutes precoupling on ice, the bead and membrane suspension was mixed with ^35S]-GTPγS (0.5 nM final radioligand concentration) in assay buffer (HEPES 20 mM, MgCl2 10 mM, NaCl 100 mM and pH adjusted to 7.4 using KOH 5M) in a 1:1 ratio. The bead, membrane and radioligand suspension was dispensed into white Greiner polypropylene low volume 384-well plates (10 μl/well), containing 0.1 μl of a solution of test compound in 100% DMSO. The final assay cocktail (10.1 μl) was then sealed, spun on a centrifuge, then read immediately on a Viewlux instrument.

[2] = target: T1, S1P1; test: S1P-1 β-Arrestin recruitment assay; format: cell-based; parameters: host or cells: PathHunter CHO-K1 EDG1 β-Arrestin cell line; settings: PathHunter CHO-K1 EDG1 β-Arrestin cell line, chemi-luminescence
Protocol: β-Arrestin recruitment assays were carried out using the PathHunter CHO-K1 EDG1 β-Arrestin cell line (DiscoveRx Corporation) in a chemi-luminescence detection assay. This cell line stably expresses β-Arrestin 2 and S1P1 fused to complementing portions of β-galactosidase (‘EA’ and ‘pro-link’, respectively) which associate upon Arrestin recruitment to form functional β-galactosidase enzyme.
Cells were grown to 80% confluency in Growth Medium (F12 nutrient HAMS supplemented with 10% heat-inactivated USA FBS, 1% L-glutamax, 800 m/ml Geneticin and 300 m/ml Hygromycin). Cells were harvested from the flask using Enzyme Free Cell Dissociation Buffer (Gibco) and washed from flasks with Optimem solution (Gibco). Cells were then centrifuged at 1000 rpm for 2-3 min and resuspended in Assay Buffer (Prepared from Sigma kit H1387 supplemented with 20 ml/L HEPES, 4.7 ml/L NaHCO3, 0.1% pluronic acid F-68 solution, 0.1% BSA and adjusted to pH 7.4 using sodium hydroxide at 1×10^6 cells/ml. Cells were dispensed into assay plates containing compounds (100n1/well of a solution of test compound in 100% DMSO) at 1×10^4 cells/well and incubated at 37° C./5% CO2 for 90 min followed by 15 min at room temperature. 5 μl detection mix (1 part Galacton Star, 5 parts Emerald II, 19 parts Assay Buffer; DiscoveRx) were added per well and the plates incubated at room temperature for 60 min. Luminescence was quantified using a Viewlux plate reader.

[3] = system: circulating lymphocytes; settings: animals and man; cited from earlier work
[4] = clinical studies, first 24 hours of treatment; cited from earlier work

T1 sequence (P21453 whole entry): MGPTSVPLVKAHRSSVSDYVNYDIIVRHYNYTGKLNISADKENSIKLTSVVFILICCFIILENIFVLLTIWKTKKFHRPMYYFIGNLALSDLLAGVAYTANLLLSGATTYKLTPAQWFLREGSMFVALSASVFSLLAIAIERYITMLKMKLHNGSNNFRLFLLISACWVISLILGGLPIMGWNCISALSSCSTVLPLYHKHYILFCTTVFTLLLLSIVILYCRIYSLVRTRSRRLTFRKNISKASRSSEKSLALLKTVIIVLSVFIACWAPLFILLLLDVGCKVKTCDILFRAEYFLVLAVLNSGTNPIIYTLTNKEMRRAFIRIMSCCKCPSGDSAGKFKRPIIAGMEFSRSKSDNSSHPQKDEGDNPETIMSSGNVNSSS

## Cc1c2c(nn1-c1nnc(-c3ccc(OC(C)C)c(Cl)c3)s1)CCN(CCC(=O)O)C2 [Example 2, 3-[2-(5-{3-Chloro-4-[(1-methylethyl)oxy]phenyl}-1,3,4-thiadiazol-2-yl)-3-methyl-2,4,6,7-tetrahydro-5H-pyrazolo[4,3-c]pyridin-5-yl]propanoic acid]
[1]
  EC50: ≤ 10 nM
[2]
  EC50: ≤ 10 nM

## Cc1c2c(nn1-c1nnc(-c3ccc(OC(C)C)c(C#N)c3)s1)CCNC2 [Example 3, 2-[(1-Methylethyl)oxy]-5-[5-(3-methyl-4,5,6,7-tetrahydro-2H-pyrazolo[4,3-c]pyridin-2-yl)-1,3,4-thiadiazol-2-yl]benzonitrile]
[2]
  EC50: ≤ 100 nM

## Cc1c2c(nn1-c1nnc(-c3ccc(OC(C)C)c(C#N)c3)s1)CCN(CCC(=O)O)C2 [Example 4, 3-[2-(5-{3-Cyano-4-[(1-methylethyl)oxy]phenyl}-1,3,4-thiadiazol-2-yl)-3-methyl-2,4,6,7-tetrahydro-5H-pyrazolo[4,3-c]pyridin-5-yl]propanoic acid trifluoroacetic acid salt]
[2]
  EC50: ≤ 10 nM

## Cc1c2c(nn1-c1nnc(-c3ccc(OC(C)C)c(C#N)c3)s1)CCN(CCC(N)=O)C2 [Example 5, 3-[2-(5-{3-Cyano-4-[(1-methylethyl)oxy]phenyl}-1,3,4-thiadiazol-2-yl)-3-methyl-2,4,6,7-tetrahydro-5H-pyrazolo[4,3-c]pyridin-5-yl]propanamide]
[2]
  EC50: ≤ 10 nM

## CC(C)Oc1ccc(-c2nnc(-n3cc4c(n3)CCN(CCCC(=O)O)C4)s2)cc1Cl [Example 7, 4-[2-(5-{3-Chloro-4-[(1-methylethyl)oxy]phenyl}-1,3,4-thiadiazol-2-yl)-2,4,6,7-tetrahydro-5H-pyrazolo[4,3-c]pyridin-5-yl]butanoic acid]
[1]
  EC50: ≤ 100 nM
[2]
  EC50: ≤ 10 nM

## CC(C)Oc1ccc(-c2nnc(-n3cc4c(n3)CCN(CCC(=O)O)C4)s2)cc1Cl [Example 8, 3-[2-(5-{3-Chloro-4-[(1-methylethyl)oxy]phenyl}-1,3,4-thiadiazol-2-yl)-2,4,6,7-tetrahydro-5H-pyrazolo[4,3-c]pyridin-5-yl]propanoic acid]
[1]
  EC50: ≤ 100 nM
[2]
  EC50: ≤ 10 nM

## CC(C)Oc1ccc(-c2nnc(-n3cc4c(n3)CCN(CCC(=O)O)C4)s2)cc1C#N [Example 12, 3-[2-(5-{3-Cyano-4-[(1-methylethyl)oxy]phenyl}-1,3,4-thiadiazol-2-yl)-2,4,6,7-tetrahydro-5H-pyrazolo[4,3-c]pyridin-5-yl]propanoic acid]
[1]
  EC50: ≤ 100 nM
[2]
  EC50: ≤ 10 nM

## CC(C)Oc1ccc(-c2nnc(-n3cc4c(n3)CCN(CCCC(=O)O)C4)s2)cc1C#N [Example 13, 4-[2-(5-{3-Cyano-4-[(1-methylethyl)oxy]phenyl}-1,3,4-thiadiazol-2-yl)-2,4,6,7-tetrahydro-5H-pyrazolo[4,3-c]pyridin-5-yl]butanoic acid]
[2]
  EC50: ≤ 10 nM

## CC(C)Oc1ccc(-c2nnc(-n3ncc4c3CCN(CCC(=O)O)C4)s2)cc1Cl [Example 15, 3-[1-(5-{3-Chloro-4-[(1-methylethyl)oxy]phenyl}-1,3,4-thiadiazol-2-yl)-1,4,6,7-tetrahydro-5H-pyrazolo[4,3-c]pyridin-5-yl]propanoic acid]
[2]
  EC50: ≤ 100 nM

## Cc1c2c(nn1-c1nnc(-c3ccc(OC(C)C)c(C#N)c3)s1)CCN(C(CO)CO)C2 [Example 25, 5-(5-{5-[2-hydroxy-1-(hydroxymethyl)ethyl]-3-methyl-4,5,6,7-tetrahydro-2H-pyrazolo[4,3-c]pyridin-2-yl}-1,3,4-thiadiazol-2-yl)-2-[(1-methylethyl)oxy]benzonitrile]
[2]
  EC50: ≤ 10 nM

## Cc1c2c(nn1-c1nnc(-c3ccc(OC(C)C)c(C#N)c3)s1)CCN(C[C@H](O)CO)C2 [Example 26, 5-(5-{5-[(2S)-2,3-dihydroxypropyl]-3-methyl-4,5,6,7-tetrahydro-2H-pyrazolo[4,3-c]pyridin-2-yl}-1,3,4-thiadiazol-2-yl)-2-[(1-methylethyl)oxy]benzonitrile]
[2]
  EC50: ≤ 10 nM

## Cc1c2c(nn1-c1nnc(-c3ccc(OC(C)C)c(C#N)c3)s1)CCN(C(=O)CN[C@H](C)CO)C2 [Example 30, 5-[5-(5-{N—[(1R)-2-hydroxy-1-methylethyl]glycyl}-3-methyl-4,5,6,7-tetrahydro-2H-pyrazolo[4,3-c]pyridin-2-yl)-1,3,4-thiadiazol-2-yl]-2-[(1-methylethyl)oxy]benzonitrile]
[2]
  EC50: ≤ 10 nM

## Cc1c2c(nn1-c1nnc(-c3ccc(OC(C)C)c(C#N)c3)s1)CCN(C(=O)CNC[C@H](C)O)C2 [Example 33, 5-[5-(5-{N-[(2S)-2-hydroxypropyl]glycyl}-3-methyl-4,5,6,7-tetrahydro-2H-pyrazolo[4,3-c]pyridin-2-yl)-1,3,4-thiadiazol-2-yl]-2-[(1-methylethyl)oxy]benzonitrile]
[2]
  EC50: ≤ 100 nM

## Cc1c2c(nn1-c1nnc(-c3ccc(OC(C)C)c(C#N)c3)s1)CCN(C(=O)CNC[C@H](O)CO)C2 [Example 34, 5-[5-(5-{N-[(2S)-2,3-dihydroxypropyl]glycyl}-3-methyl-4,5,6,7-tetrahydro-2H-pyrazolo[4,3-c]pyridin-2-yl)-1,3,4-thiadiazol-2-yl]-2-[(1-methylethyl)oxy]benzonitrile]
[2]
  EC50: ≤ 10 nM

## Cc1c2c(nn1-c1nnc(-c3ccc(OC(C)C)c(C#N)c3)s1)CCN(C(=O)CNCCO)C2 [Example 35, 5-(5-{5-[N-(2-hydroxyethyl)glycyl]-3-methyl-4,5,6,7-tetrahydro-2H-pyrazolo[4,3-c]pyridin-2-yl}-1,3,4-thiadiazol-2-yl)-2-[(1-methylethyl)oxy]benzonitrile]
[2]
  EC50: ≤ 10 nM

## Cc1c2c(nn1-c1nnc(-c3ccc(OC(C)C)c(C#N)c3)s1)CCN(C(=O)CNC(CO)CO)C2 [Example 36, 5-[5-(5-{N-[2-hydroxy-1-(hydroxymethyl)ethyl]glycyl}-3-methyl-4,5,6,7-tetrahydro-2H-pyrazolo[4,3-c]pyridin-2-yl)-1,3,4-thiadiazol-2-yl]-2-[(1-methylethyl)oxy]benzonitrile]
[2]
  EC50: ≤ 10 nM

## COC(=O)[C@H](O)CN1CCc2nn(-c3nnc(-c4ccc(OC(C)C)c(Cl)c4)s3)c(C)c2C1 [Example 41, methyl (2R)-3-[2-(5-{3-chloro-4-[(1-methylethyl)oxy]phenyl}-1,3,4-thiadiazol-2-yl)-3-methyl-2,4,6,7-tetrahydro-5H-pyrazolo[4,3-c]pyridin-5-yl]-2-hydroxypropanoate]
[2]
  EC50: ≤ 10 nM

## Cc1c2c(nn1-c1nnc(-c3ccc(OC(C)C)c(Cl)c3)s1)CCN(C[C@H](O)CO)C2 [Example 42, (2S)-3-[2-(5-{3-chloro-4-[(1-methylethyl)oxy]phenyl}-1,3,4-thiadiazol-2-yl)-3-methyl-2,4,6,7-tetrahydro-5H-pyrazolo[4,3-c]pyridin-5-yl]-1,2-propanediol formic acid salt]
[2]
  EC50: ≤ 100 nM

## CCCCCCCCc1ccc(CCC(N)(CO)CO)cc1 [FTY720]
[3]
  effect on circulating lymphocytes: reduce circulating lymphocytes
[4]
  bradycardia: results in bradycardia
